Measurements: US20200022967A1, “Use of 2-carboxamide cycloamino urea derivatives in the treatment of EGFR dependent diseases or diseases that have acquired resistance to agents that target EGFR family members” (Novartis AG, priority 2010, published 2020)

Assays:
[1] = Body weight nadir and deaths in NCI-N87 trastuzumab study (Example 4); type: in vivo, mice
Excerpt: Treatments started 9 days post tumor cell implantation and lasted for 30 consecutive days (or until tumor volume=2000 mm^3).

NCI-N87 tumors = assay: NCI-N87 xenograft in CB17 SCID mice, Compound A alone and with lapatinib (Example 6); type: in vivo; conditions: for Median TTE: control 26.2
Experimental: The NCI-N87 cells were harvested with 5× trypsin. Eight days after tumor implantation (on Day 1 of the study), mice with an individual tumor volume of 88-196 mm^3 were sorted into 10 groups of ten mice with a group mean tumor volume of 143-149 mm^3.
Where applicable, data is presented as mean±SEM. Each animal was euthanized when its neoplasm reached the endpoint volume (1000 mm^3), or on the last day of the study (Day 59). Time to endpoint (TTE) is calculated by the equation: TTE=(log10(endpoint volume)−b)/m, where TTE is expressed in days, endpoint volume is in mm3, b is the intercept and m is the slope of the line obtained by linear regression of a log-transformed tumor growth data set. Treatment efficacy was determined from Tumor Growth Delay (TGD), which was defined as the increase in the median time to endpoint (TTE) for a treatment group compared to the control group (TGD=T−C), expressed in days, or as a percentage of the median TTE of the control group (% TGD=((T−C)/C)×100), wherein T=median TTE for a treatment group and C=median TTE for the designated control group.
Statistical and graphical analyses was performed with Prism 3.03 (GraphPad) for Windows. For all tests, the level of significance of differences was done using ANOVA, with Bartlett's test; and a post-hoc Dunnett's multiple comparison test compared the mean change for each drub-treated group to the mean for Group 1. Survival was analyzed by the Kaplan-Meier method. The logrank test was employed to analyze the significance of the difference between the overall survival experiences of two groups, based on time to endpoint (TTE) values. The two-tailed statistical analyses were conducted at P=0.05. Prism summarizes test results as not significant (ns) at P>0.05, significant (symbolized by “*”) at 0.01<P<0.05, very significant (symbolized by “**”) at 0.001<P<0.01, and extremely significant (symbolized by “***”) at P<0.001.

[2] = Body weight change in NCI-N87 xenograft mice (Example 2); type: in vivo; conditions: 50 mg/kg p.o. once daily; not significant
Experimental: (§1) Tumor volumes were measured with calipers and determined according to the formula: length×diameter^2×π/6. […] Regressions (%) were calculated according to the formula ((mean tumor volume at end of treatment-mean tumor volume at start of treatment)/mean tumor volume at start of treatment)×100. Body weights and tumor volumes were recorded twice a week.
(§2) Where applicable, data is presented as mean±SEM. For all tests, the level of significance was set at p<0.05. For tumor volumes, comparisons between treatment groups and vehicle control group were done using one-way ANOVA followed by Dunnett's test. The level of significance of body weight change within a group between the start and the end of the treatment period was determined using a paired t-test. Comparisons of delta body weights between treatment and vehicle control groups were performed by a one-way ANOVA followed by a post hoc Dunnett's test.

[3] = Body weight change in BT474 xenograft mice (Example 1); type: in vivo; conditions: for mean body weight change: not significant; for mean change of body weight: 50 mg/kg p.o. once daily, p<0.05
Experimental: as §1, §2

[4] = Body weight nadir and deaths in NCI-N87 lapatinib study (Example 6)
Experimental: Treatments started eight days post tumor cell implantation and lasted for 59 consecutive days or until tumor volume=1000 mm^3. […] For the b.i.d. dosing schedule, the first dose was given p.m. on Day 1 and last dose a.m. on Day 22. […] Body weights were recorded on Days 1-5, on each treatment day (except weekends), and twice weekly thereafter until end of the study.

[5] = Group 3: Compound A 25 mg/kg p.o. once daily
[6] = Group 4: Compound A 50 mg/kg p.o. once daily
[7] = Group 2 (9 animals): Compound A 12.5 mg/kg p.o. once daily
[8] = Group 2: Compound A 12.5 mg/kg p.o. once daily
[9] = Group 3 (9 animals): Compound A 25 mg/kg p.o. once daily

Cc1nc(NC(=O)N2CCC[C@H]2C(N)=O)sc1-c1ccnc(C(C)(C)C(F)(F)F)c1 [Compound A, (S)-Pyrrolidine-1,2-dicarboxylic acid 2-amide 1-({4-methyl-5-[2-(2,2,2-trifluoro-1,1-dimethyl-ethyl)-pyridin-4-yl]-thiazol-2-yl}-amide)]
Deaths (TR/NTR) ([1]; Group 2 (8 animals): Compound A 12.5 mg/kg p.o. once daily): 0
Mean BW Nadir (lowest group mean BW) ([1]; Group 2: Compound A 12.5 mg/kg p.o. once daily, Day 22): −7% (Day 22)
Deaths NTR = non-treatment related [1, 5]: NTR: 1
Deaths TR = treatment-related [1, 5]: TR: 1
Mean BW Nadir (lowest group mean BW) ([1]; Group 3: Compound A 25 mg/kg p.o. once daily, Day 26): −12.2% (Day
Deaths NTR = non-treatment related [1, 6]: NTR: 0
Deaths TR = treatment-related [1, 6]: TR: 4
Mean BW Nadir (lowest group mean BW) ([1]; Group 4: Compound A 50 mg/kg p.o. once daily, Day 12): −13.1% (Day
Regressions CR (NCI-N87 tumors; [7]): CR: 0
Regressions PR (NCI-N87 tumors; [7]): PR: 0,
Median TTE (NCI-N87 tumors; Group 2 (9 animals): Compound A 12.5 mg/kg p.o. once daily, vs G1 ns): 30.4 days
% TGD (NCI-N87 tumors; [8]): 16%
T-C (NCI-N87 tumors; [8]): 4.2 days
Regressions CR (NCI-N87 tumors; [9]): CR: 0
Regressions PR (NCI-N87 tumors; [9]): PR: 0,
Median TTE (NCI-N87 tumors; Group 3 (9 animals): Compound A 25 mg/kg p.o. once daily, vs G1 *): 43.5 days
% TGD (NCI-N87 tumors; [5]): 16%
T-C (NCI-N87 tumors; [5]): 17.3 days
mean change of body weight [2]: 3.8±2.1%
mean body weight change ([3]; 12.5 mg/kg p.o. once daily): 1.4±1.2%
mean body weight change ([3]; 25 mg/kg p.o. once daily): −1.2±1.2%
mean change of body weight ([3]; first of the two experiments): 10.6±4.1%
mean change of body weight ([3]; second of the two experiments): 8.2±2.6%
Deaths NTR = non-treatment related [4, 8]: NTR: 1
Deaths TR = treatment-related [4, 8]: TR: 1
Deaths NTR = non-treatment related [4, 5]: NTR: 1
Deaths TR = treatment-related [4, 5]: TR: 1
Mean BW Nadir (lowest group mean BW) ([4]; Group 3: Compound A 25 mg/kg p.o. once daily, Day 14): −8.4%
